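96-well plates; 48 h exposure; 5 concentrations. Endpoints by linear interpolation between flanking doses. Not reached: highest tested concentration assigned. Abbreviation: GI50, concentration required for 50% inhibition of growth.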 Active and inactive are the calls of the source. Rule as the data show it: active = GI50 up to about 1.1 µM and inactive = higher.
What was measured:
Assay in all cases: NCI tumour cell line growth inhibition, 48 h
786-0 = test system: 786-0
A498 = test system: A498
A549 = test system: A549
ACHN = test system: ACHN
BT-549 = test system: BT-549
CAKI-1 = test system: CAKI-1
CCRF-CEM = test system: CCRF-CEM
COLO 205 = test system: COLO 205
DU-145 = test system: DU-145
EKVX = test system: EKVX
HCC 2998 = test system: HCC 2998
HCT-116 = test system: HCT-116
HCT-15 = test system: HCT-15
HL-60 = test system: HL-60
HOP-62 = test system: HOP-62
HOP-92 = test system: HOP-92
HT-29 = test system: HT-29
IGROV-1 = test system: IGROV-1
K562 = test system: K562
KM12 = test system: KM12
LOX IMVI = test system: LOX IMVI
M14 = test system: M14
MCF7 = test system: MCF7
MDA-MB-231 = test system: MDA-MB-231
MDA-MB-435 = test system: MDA-MB-435
MDA-N = test system: MDA-N
MOLT-4 = test system: MOLT-4
NCI-H226 = test system: NCI-H226
NCI-H23 = test system: NCI-H23
NCI-H522 = test system: NCI-H522
NCI/ADR-RES = test system: NCI/ADR-RES
OVCAR-3 = test system: OVCAR-3
OVCAR-4 = test system: OVCAR-4
OVCAR-5 = test system: OVCAR-5
OVCAR-8 = test system: OVCAR-8
PC-3 = test system: PC-3
RPMI-8226 = test system: RPMI-8226
SF-268 = test system: SF-268
SF-295 = test system: SF-295
SF-539 = test system: SF-539
SK-MEL-28 = test system: SK-MEL-28
SK-MEL-2 = test system: SK-MEL-2
SK-MEL-5 = test system: SK-MEL-5
SK-OV-3 = test system: SK-OV-3
SN12C = test system: SN12C
SNB-19 = test system: SNB-19
SR = test system: SR
SW-620 = test system: SW-620
T47D = test system: T47D
TK-10 = test system: TK-10
U-251 = test system: U-251
UACC-257 = test system: UACC-257
UACC-62 = test system: UACC-62
UO-31 = test system: UO-31
Malme-3M = test system: Malme-3M
NCI-H460 = test system: NCI-H460
RXF 393 = test system: RXF 393
SNB-75 = test system: SNB-75

Question: CCC[C@@H](O)C[C@@H]1CCC[C@H](C[C@@H](O)CC)N1C was tested. Which GI50 (786-0) did it give?
Answer: > 100 µM (inactive)

Question: What about the GI50 (A498) of the same compound?
Answer: > 100 µM (inactive)

Question: What about the GI50 (A549) of the same compound?
Answer: > 100 µM (inactive)

Question: And the GI50 (ACHN)?
Answer: > 100 µM (inactive)

Question: What about the GI50 (BT-549) of the same compound?
Answer: 76.4 µM (inactive)

Question: And the GI50 (CAKI-1)?
Answer: > 100 µM (inactive)

Question: And the GI50 (CCRF-CEM)?
Answer: > 100 µM (inactive)

Question: And the GI50 (COLO 205)?
Answer: > 100 µM (inactive)

Question: What about the GI50 (DU-145) of the same compound?
Answer: > 100 µM (inactive)

Question: And the GI50 (EKVX)?
Answer: 29.7 µM (inactive)

Question: And the GI50 (HCC 2998)?
Answer: > 100 µM (inactive)

Question: What about the GI50 (HCT-116) of the same compound?
Answer: > 100 µM (inactive)

Question: What about the GI50 (HCT-15) of the same compound?
Answer: > 100 µM

Question: And the GI50 (HL-60)?
Answer: > 100 µM (inactive)

Question: What about the GI50 (HOP-62) of the same compound?
Answer: > 100 µM (inactive)

Question: What about the GI50 (HOP-92) of the same compound?
Answer: < 0.01 µM (active)

Question: And the GI50 (HT-29)?
Answer: > 100 µM (inactive)

Question: And the GI50 (IGROV-1)?
Answer: > 100 µM (inactive)

Question: And the GI50 (K562)?
Answer: > 100 µM (inactive)

Question: What about the GI50 (KM12) of the same compound?
Answer: > 100 µM (inactive)

Question: What about the GI50 (LOX IMVI) of the same compound?
Answer: 88.1 µM (inactive)

Question: And the GI50 (M14)?
Answer: > 100 µM (inactive)

Question: What about the GI50 (MCF7) of the same compound?
Answer: > 100 µM (inactive)

Question: And the GI50 (MDA-MB-231)?
Answer: > 100 µM (inactive)

Question: And the GI50 (MDA-MB-435)?
Answer: > 100 µM (inactive)

Question: What about the GI50 (MDA-N) of the same compound?
Answer: > 100 µM (inactive)

Question: What about the GI50 (MOLT-4) of the same compound?
Answer: > 100 µM (inactive)

Question: And the GI50 (NCI-H226)?
Answer: > 100 µM (inactive)

Question: And the GI50 (NCI-H23)?
Answer: > 100 µM (inactive)

Question: And the GI50 (NCI-H522)?
Answer: 11.7 µM (inactive)

Question: What about the GI50 (NCI/ADR-RES) of the same compound?
Answer: > 100 µM (inactive)

Question: And the GI50 (OVCAR-3)?
Answer: > 100 µM (inactive)

Question: And the GI50 (OVCAR-4)?
Answer: > 100 µM (inactive)

Question: And the GI50 (OVCAR-5)?
Answer: > 100 µM (inactive)

Question: What about the GI50 (OVCAR-8) of the same compound?
Answer: > 100 µM (inactive)

Question: And the GI50 (PC-3)?
Answer: > 100 µM (inactive)

Question: And the GI50 (RPMI-8226)?
Answer: > 100 µM (inactive)

Question: What about the GI50 (SF-268) of the same compound?
Answer: 17.9 µM (inactive)

Question: And the GI50 (SF-295)?
Answer: > 100 µM (inactive)

Question: What about the GI50 (SF-539) of the same compound?
Answer: > 100 µM (inactive)

Question: What about the GI50 (SK-MEL-28) of the same compound?
Answer: > 100 µM (inactive)

Question: What about the GI50 (SK-MEL-2) of the same compound?
Answer: > 100 µM (inactive)

Question: And the GI50 (SK-MEL-5)?
Answer: > 100 µM (inactive)

Question: What about the GI50 (SK-OV-3) of the same compound?
Answer: > 100 µM (inactive)

Question: What about the GI50 (SN12C) of the same compound?
Answer: > 100 µM (inactive)

Question: And the GI50 (SNB-19)?
Answer: > 100 µM (inactive)

Question: And the GI50 (SR)?
Answer: > 100 µM (inactive)

Question: And the GI50 (SW-620)?
Answer: > 100 µM (inactive)

Question: And the GI50 (T47D)?
Answer: > 100 µM (inactive)

Question: What about the GI50 (TK-10) of the same compound?
Answer: > 100 µM (inactive)

Question: What about the GI50 (U-251) of the same compound?
Answer: > 100 µM (inactive)

Question: And the GI50 (UACC-257)?
Answer: > 100 µM (inactive)

Question: What about the GI50 (UACC-62) of the same compound?
Answer: > 100 µM (inactive)

Question: What about the GI50 (UO-31) of the same compound?
Answer: > 100 µM (inactive)

Question: Which results are given for O=C1CCCCC/C1=C\c1cccc(F)c1?
Answer: GI50 (786-0): > 100 µM (inactive); GI50 (A498): > 100 µM (inactive); GI50 (A549): > 100 µM (inactive); GI50 (ACHN): 35.6 µM (inactive); GI50 (BT-549): 51.9 µM (inactive); GI50 (CAKI-1): 65.9 µM (inactive); GI50 (CCRF-CEM): 24.3 µM (inactive); GI50 (COLO 205): > 100 µM (inactive); GI50 (DU-145): > 100 µM (inactive); GI50 (EKVX): 73.8 µM (inactive); GI50 (HCC 2998): 59.8 µM (inactive); GI50 (HCT-116): 54.6 µM (inactive); GI50 (HCT-15): 39.8 µM; GI50 (HL-60): 17.1 µM (inactive); GI50 (HOP-62): > 100 µM (inactive); GI50 (HT-29): 60.5 µM (inactive); GI50 (IGROV-1): 58.9 µM (inactive); GI50 (K562): 49.5 µM (inactive); GI50 (KM12): 59.2 µM (inactive); GI50 (M14): 43.4 µM (inactive); GI50 (MCF7): 64.9 µM (inactive); GI50 (MDA-MB-231): > 100 µM (inactive); GI50 (MDA-MB-435): 55.2 µM (inactive); GI50 (MDA-N): 62.5 µM (inactive); GI50 (MOLT-4): 24.8 µM (inactive); GI50 (Malme-3M): > 100 µM (inactive); GI50 (NCI-H460): 54.5 µM (inactive); GI50 (NCI/ADR-RES): > 100 µM (inactive); GI50 (OVCAR-3): > 100 µM (inactive); GI50 (OVCAR-5): > 100 µM (inactive); GI50 (OVCAR-8): > 100 µM (inactive); GI50 (PC-3): > 100 µM (inactive); GI50 (RPMI-8226): 19.8 µM (inactive); GI50 (RXF 393): > 100 µM (inactive); GI50 (SF-268): 82.4 µM (inactive); GI50 (SF-295): > 100 µM (inactive); GI50 (SF-539): > 100 µM (inactive); GI50 (SK-MEL-28): > 100 µM (inactive); GI50 (SK-MEL-2): > 100 µM (inactive); GI50 (SK-MEL-5): 66.7 µM (inactive); GI50 (SK-OV-3): > 100 µM (inactive); GI50 (SN12C): > 100 µM (inactive); GI50 (SNB-19): > 100 µM (inactive); GI50 (SNB-75): > 100 µM (inactive); GI50 (SR): 13.5 µM (inactive); GI50 (SW-620): 83.8 µM (inactive); GI50 (T47D): > 100 µM (inactive); GI50 (TK-10): 62.5 µM (inactive); GI50 (U-251): 48.1 µM (inactive); GI50 (UACC-257): 59 µM (inactive); GI50 (UACC-62): 67.3 µM (inactive); GI50 (UO-31): 57.7 µM (inactive)

Question: What does the source list for CN(/N=C/c1ccc(C(=O)O)cc1)C1=NCCCCN1?
Answer: GI50 (786-0): > 100 µM (inactive); GI50 (A498): > 100 µM (inactive); GI50 (A549): > 100 µM (inactive); GI50 (ACHN): > 100 µM (inactive); GI50 (BT-549): > 100 µM (inactive); GI50 (CAKI-1): > 100 µM (inactive); GI50 (CCRF-CEM): > 100 µM (inactive); GI50 (COLO 205): > 100 µM (inactive); GI50 (DU-145): > 100 µM (inactive); GI50 (EKVX): > 100 µM (inactive); GI50 (HCC 2998): > 100 µM (inactive); GI50 (HCT-116): > 100 µM (inactive); GI50 (HCT-15): > 100 µM; GI50 (HL-60): > 100 µM (inactive); GI50 (HOP-62): > 100 µM (inactive); GI50 (HT-29): > 100 µM (inactive); GI50 (IGROV-1): > 100 µM (inactive); GI50 (K562): > 100 µM (inactive); GI50 (KM12): > 100 µM (inactive); GI50 (LOX IMVI): > 100 µM (inactive); GI50 (M14): > 100 µM (inactive); GI50 (MCF7): > 100 µM (inactive); GI50 (MDA-MB-231): > 100 µM (inactive); GI50 (MDA-MB-435): > 100 µM (inactive); GI50 (MDA-N): > 100 µM (inactive); GI50 (MOLT-4): > 100 µM (inactive); GI50 (Malme-3M): > 100 µM (inactive); GI50 (NCI-H226): > 100 µM (inactive); GI50 (NCI-H23): > 100 µM (inactive); GI50 (NCI-H460): > 100 µM (inactive); GI50 (NCI-H522): > 100 µM (inactive); GI50 (NCI/ADR-RES): > 100 µM (inactive); GI50 (OVCAR-3): > 100 µM (inactive); GI50 (OVCAR-4): > 100 µM (inactive); GI50 (OVCAR-5): > 100 µM (inactive); GI50 (OVCAR-8): > 100 µM (inactive); GI50 (PC-3): > 100 µM (inactive); GI50 (RPMI-8226): > 100 µM (inactive); GI50 (SF-268): > 100 µM (inactive); GI50 (SF-295): > 100 µM (inactive); GI50 (SF-539): > 100 µM (inactive); GI50 (SK-MEL-28): > 100 µM (inactive); GI50 (SK-MEL-5): > 100 µM (inactive); GI50 (SK-OV-3): > 100 µM (inactive); GI50 (SN12C): > 100 µM (inactive); GI50 (SNB-19): > 100 µM (inactive); GI50 (SNB-75): 98.9 µM (inactive); GI50 (SR): > 100 µM (inactive); GI50 (T47D): > 100 µM (inactive); GI50 (U-251): > 100 µM (inactive); GI50 (UACC-257): > 100 µM (inactive); GI50 (UACC-62): > 100 µM (inactive); GI50 (UO-31): > 100 µM (inactive)

— ChEMBL document CHEMBL1201862, “PubChem BioAssay data set” (2004)
